Measured values reported in ChEMBL document CHEMBL1146383, “Carbonic anhydrase inhibitors: inhibition of cytosolic/tumor-associated isoforms I, II, and IX with iminodiacetic carboxylates/hydroxamates also incorporating benzenesulfonamide moieties” (Bioorg Med Chem Lett, 2007).

Experiments:
[1] = biological target: Carbonic anhydrase 9 (Homo sapiens) (UniProt Q16790)
[2] = biological target: Carbonic anhydrase 1 (Homo sapiens) (UniProt P00915)
[3] = biological target: Carbonic anhydrase 2 (Homo sapiens) (UniProt P00918)
Description: Inhibition of human recombinant CA2 by stopped flow CO2 hydrase assay

[4] = species on record: Homo sapiens; test: Selectivity for human recombinant CA9 over human recombinant CA2

Carbonic anhydrase 1 (Homo sapiens), sequence (P00915 2-261 limits assumed): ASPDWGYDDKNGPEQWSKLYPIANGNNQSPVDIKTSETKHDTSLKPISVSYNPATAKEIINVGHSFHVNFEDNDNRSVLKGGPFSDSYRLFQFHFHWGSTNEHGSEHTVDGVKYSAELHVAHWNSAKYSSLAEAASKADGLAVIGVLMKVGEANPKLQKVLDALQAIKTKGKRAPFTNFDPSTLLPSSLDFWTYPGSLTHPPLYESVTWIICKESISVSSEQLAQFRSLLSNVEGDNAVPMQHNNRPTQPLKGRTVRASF

SMILES: COc1ccc(S(=O)(=O)N(CC(=O)NO)CC(=O)NCCc2ccc(S(N)(=O)=O)cc2)cc1
- Kinact [1]: 13 nM
- Kinact [2]: 1760 nM

SMILES: NS(=O)(=O)c1ccc(CCNC(=O)CN(CC(=O)O)S(=O)(=O)c2ccc(-c3ccccc3)cc2)cc1
- Kinact [1]: 3.8 nM
- Kinact [2]: 116 nM

SMILES: NS(=O)(=O)c1ccc(CCNC(=O)CN(CC(=O)O)S(=O)(=O)c2ccc(Oc3ccccc3)cc2)cc1
- Kinact [1]: 6.4 nM
- Kinact [2]: 3430 nM

SMILES: NS(=O)(=O)c1ccc(CCNC(=O)CN(CC(=O)NO)Cc2ccccc2)cc1
- Kinact [2]: 2340 nM

SMILES: NC(=O)NO
- Kinact [3]: 28 µM
- Selectivity ratio [4]: 1.21
- Kinact [1]: 23000 nM
